According to patent US20210137953A1, “Inhibitors of Mcl-1 and Akt Binding, Pharmaceutical Compositions, and Uses in Treating Cancer” (Emory University, priority 2019, published 2021):
Entries after “also recorded” stand apart in the source; their conditions may differ.

Columns and labels:
human lung cancer cells = experiment: sulforhodamine B cytotoxicity screening; assay type: cell-based; conditions: sulforhodamine B assay; among the top 500 small molecules from docking
Excerpt: The small molecules were ranked according to their energy scores. The top 500 small molecules based on predicted binding energies were selected for screening of cytotoxicity in human lung cancer cells by sulforhodamine B assay as described in Park et al. Novel small molecule inhibitors of Bcl-XL to treat lung cancer. Cancer Res 2013;73: 5485-96.

GST-tagged WT Akt = target: T1, GST-tagged WT Akt (Homo sapiens, UniProt P31749); experiment: thermal shift assay, GST-WT Akt; assay type: binding; conditions: purified GST-WT Akt, increasing concentrations
T1 construct: made in house
Description: (§1) To test whether PH-687 specifically binds to the PH domain in Akt, recombinant GST-tagged WT Akt, PH deletion Akt mutant (DPH), and PH domain-only proteins were generated and PH-687 compound/Akt protein binding were measured using a thermal shift assay. Thermal shift assay is a technique to study protein/small-molecule interactions that enhance protein thermal stability and increase melting temperatures as described in Jin et al. Glutamate dehydrogenase 1 signals through antioxidant glutathione peroxidase 1 to regulate redox homeostasis and tumor growth. Cancer Cell, 2015, 27:257-70. […] Because PH-687 can bind to the Mcl-1-binding site (i.e., PH domain) on Akt protein, the effect of PH-687 on Mcl-1/Akt interaction was tested.

[1] = target: T2, GST-PH domain-only Akt protein (Homo sapiens, UniProt P31749); experiment: thermal shift assay, PH domain-only protein; assay type: binding; conditions: purified GST-PH-mutant (PH domain-only) protein, increasing concentrations
T2 construct: PH domain-only proteins were generated; made in house
Description: as §1

[2] = system: GST-DPH (PH deletion Akt mutant); experiment: thermal shift assay, PH deletion Akt mutant; assay type: binding; conditions: GST-DPH protein, increasing concentrations
Description: as §1

Mcl-1/Akt complexes = target: T3, Mcl-1/Akt complexes (Homo sapiens, UniProt P31749); experiment: Co-IP of Mcl-1/Akt interaction in H1299 cells; assay type: cell-based; conditions: increasing concentrations
T3 construct: treatment of H1299 cells with increasing concentrations of PH-687; endogenous in cells; host or cells: H1299
Description: To evaluate the mechanism by which Mcl-1 regulates Akt, coimmunoprecipitation (co-IP) experiments using Mcl-1 or Akt antibody were performed in H1299 parental versus H1299 Mcl-1^−/^− cells. […] Because Akt antibody could pull-down Mcl-1 protein only in H1299 parental, but not in H1299 Mcl-1^−/^− cells, this indicates a potential direct interaction between Mcl-1 and Akt in human lung cancer cells. To further verify this interaction, similar co-IP experiments were carried out in a cell-free system using purified recombinant Mcl-1 and Akt proteins. Consistently, Mcl-1 also directly interacted with Akt in the cell-free system. To detect the intracellular localization(s) of Akt/Mcl-1 interaction, a Duolink™ proximity ligation assay (PLA) system was employed to detect Akt/Mcl-1 interaction in H1299 cells and H460 cells according to the manufacturer's instructions. Two primary antibodies raised in different species (i.e., Mcl-1 antibody from rabbit and Akt antibody from mouse) are used to detect two unique protein targets. […] PLA signals were detected by fluorescence microscopy as discrete spots. […]
To test whether PH-687 specifically binds to the PH domain in Akt, recombinant GST-tagged WT Akt, PH deletion Akt mutant (DPH), and PH domain-only proteins were generated and PH-687 compound/Akt protein binding were measured using a thermal shift assay. […]

Akt = Akt activity in human lung cancer cell lines; assay type: cell-based
[3] = system: various human lung cancer cell lines (H1299, H157, H460); experiment: colony formation / growth in various human lung cancer cell lines; assay type: cell-based
Akt PH/KD interaction = experiment: mammalian two-hybrid system (SEAP), PH/KD interaction in H1299 cells; assay type: cell-based, human; conditions: H1299 cells, 0, 0.5, 1, 2 mmol/L, 24 hours
Excerpt: Because Mcl-1 can directly interact with Akt at the PH domain, experiments were designed to test whether Mcl-1 affects the intramolecular PH domain/KD interaction. GST-tagged KD, GFP-tagged PH domain, and Flag-tagged WT Mcl-1 or DPEST Mcl-1 mutant were used for co-transfection and co-IP experiments. […] To further confirm these findings, a mammalian two-hybrid system was employed to measure the PH/KD interaction. Co-transfection of Gal4BD-Akt KD and VP16AD-Akt PH along with pG5SEAP in cells drives the expression of secreted alkaline phosphatase (SEAP) when KD/PH interaction occurs. To test the effect of Mcl-1 on KD/PH interaction, the two-hybrid H1299 Mcl-1^−/^− cells were co-transfected with WT Mcl-1 or DPEST mutant Mcl-1, followed by analysis of SEAP activity. […] Because the PEST domain is required for Mcl-1/Akt binding, it is proposed that Mcl-1 disruption of intramolecular PH domain/kinase domain interactions may occur through Mcl-1/Akt binding.
(§2) To test whether PH-687-mediated Mcl-1/Akt dissociation enhances interaction between the PH and KD domains, a mammalian two-hybrid system was employed to measure the PH/KD interaction in H1299 cells using Gal4BD-Akt KD, VP16AD-Akt PH, and pG5SEAP in the absence or presence of PH-687.

Akt/PDK1 = target: T4, Akt/PDK1 (Homo sapiens, UniProt P31749); experiment: interaction of Akt with PDK1 in H1299 cells; assay type: cell-based
T4 construct: endogenous in cells; host or cells: H1299
Description: (§3) PIP3 directly binds to the PH domain and induces a conformational change in Akt, which enables PDK1 or mTORC2 to access and phosphorylate Akt at T308 or S473. To test whether Mcl-1, similar to PIP3, may also affect the interactions between Akt and PDK1 or mTORC2, co-IP experiments using Akt antibody were performed in H1299 parental cells or H1299 Mcl-1^−/^− cells expressing WT Mcl-1, DPEST Mcl-1 mutant, or empty vector, followed by Western blot using PDK1 or mTORC2 antibody, respectively. Results reveal that knockout of Mcl-1 disrupted Akt/PDK1 and Akt/mTORC2 interactions, and expression of WT Mcl-1, but not PEST deletion mutant, restored Akt/PDK1 and Akt/mTORC2 interactions.
as §2

Akt/mTORC2 = target: T5, Akt/mTORC2 (Homo sapiens, UniProt P31749); experiment: interaction of Akt with mTORC2 in H1299 cells; assay type: cell-based
T5 construct: endogenous in cells; host or cells: H1299
Description: as §3, §2

H1299 parental cells = experiment: colony formation assay, H1299 parental cells; assay type: cell-based, human; conditions: H1299 cells, 0, 0.1, 0.5, 1 mmol/L
Description: (§4) To further test whether PH-687 specifically functions through targeting Mcl-1/AKT signaling in lung cancer cells, H1299 parental cells, H1299 Mcl-1^−/^− cells and H1299 cells expressing Akt siRNA were treated with increasing concentrations of PH-687 (0, 0.1, 0.5, 1 mmol/L), followed by colony formation assay.

H1299 Mcl-1−/− cells = experiment: colony formation assay, H1299 Mcl-1−/− cells; assay type: cell-based, human; conditions: knockout of Mcl-1 by CRISPR/cas9, vs H1299 parental; 0, 0.1, 0.5, 1 mmol/L
Description: as §4

[4] = system: H1299 cells expressing Akt siRNA; experiment: colony formation assay, H1299 cells expressing Akt siRNA; assay type: cell-based, human; conditions: knockdown of Akt by Akt siRNA, vs H1299 parental; 0, 0.1, 0.5, 1 mmol/L
Description: as §4

Akt phosphorylation = experiment: growth factor-induced Akt phosphorylation in H1299 cells; assay type: cell-based, human; conditions: 2 mmol/L, 1 hour, EGF 100 ng/mL, IGF 10 ng/mL or insulin 1 mg/mL
Description: To test whether Mcl-1 or PH-687 also affects Akt activation by growth factors such as EGF, IGF, or insulin, first, H1299 parental and H1299 Mcl-1^−/^− cells were treated with EGF (100 ng/mL), IGF (10 ng/mL), or insulin (1 mg/mL) for 1 hour, followed by analysis of Akt phosphorylation. […] Knockout of Mcl-1 blocked EGF, IGF, and insulin-induced Akt phosphorylation at S473 and T308. Second, H1299 cells were treated with EGF (100 ng/mL), IGF (10 ng/mL), or insulin (1 mg/mL) in the absence or presence of PH-687 (2 mmol/L) for 1 hour, followed by analysis of Akt phosphorylation. Results reveal that PH-687 inhibited EGF, IGF, and insulin-induced Akt phosphorylation at S473 and T308.

NSCLC (H1299) xenografts = experiment: H1299 lung cancer xenografts in nude mice; assay type: in vivo
Description: Nu/Nu nude mice with H1299 lung cancer xenografts were treated with increasing doses of PH-687 for 4 weeks. Tumor volume was measured once every 4 days. After 28 days, mice were sacrificed and the tumors were removed, photographed, and analyzed.
(§5) To test the antitumor potency of PH-687 in vivo, nude mice with NSCLC (i.e., H1299) xenografts were treated with increasing doses (0, 30, 60, and 90 mg/kg/day) of PH-687 for 4 weeks.
(§6) Six-week-old male nude mice were purchased from Harlan and housed under pathogen-free conditions. H1299 cells were subcutaneously implanted into mouse flanks. Tumor bearing mice were randomly grouped and tumors were allowed to grow to an average volume of 100 mm3 before treatment. Mice were treated with PH-687 through intraperitoneal injection (i.p) at the indicated dose. During treatment, tumor volumes were measured by caliper once every 4 days.
Paraffin-embedded human lung tissue samples from 208 patients with NSCLC were obtained. Tissue microarray was constructed with replicate cores of tumor and adjacent normal lung. After deparaffinization, rehydration, inactivation of endogenous peroxidase, and antigen retrieval, IHC staining was performed. The following primary antibody dilutions were used: anti-Mcl-1 (1:300), anti-pAKT S473 (1:100), anti-pAKT T308 (1:100), anti-Ki67 (1:500), and anti-active caspase-3 (1:100). Ki67-positive cells and active caspase-3-positive cells in tumor tissues were scored. Percentage of positive cells was determined from three separate fields in each of three independent tumor samples. The semiquantitative evaluation of IHC staining of Mcl-1 and pAkt was carried out using an immunoscore based on both the percentage of stained cells and staining intensity.

[5] = toxicity in xenograft-bearing mice (body weight, blood chemistry, blood counts); assay type: in vivo; conditions: 30-90 mg/kg/day
Description: as §5, §6

[6] = harvested tumor tissues after treatment

T1 sequence (P31749 whole entry): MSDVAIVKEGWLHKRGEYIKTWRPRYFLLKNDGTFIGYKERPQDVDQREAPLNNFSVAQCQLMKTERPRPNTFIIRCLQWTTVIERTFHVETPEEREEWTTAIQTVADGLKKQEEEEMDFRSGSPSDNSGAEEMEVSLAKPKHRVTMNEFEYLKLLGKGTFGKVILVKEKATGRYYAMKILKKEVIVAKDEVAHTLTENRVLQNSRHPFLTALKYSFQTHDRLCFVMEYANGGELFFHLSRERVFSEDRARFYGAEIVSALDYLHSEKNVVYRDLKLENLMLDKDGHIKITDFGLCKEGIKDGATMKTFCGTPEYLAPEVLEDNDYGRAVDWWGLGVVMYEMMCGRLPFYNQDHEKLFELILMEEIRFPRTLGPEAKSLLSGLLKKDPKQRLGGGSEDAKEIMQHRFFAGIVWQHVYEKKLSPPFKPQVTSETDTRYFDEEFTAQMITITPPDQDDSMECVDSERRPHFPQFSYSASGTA
T3 sequence (P31749 whole entry, one chain of several): as the sequence (P31749 whole entry) above
T4 sequence (P31749 whole entry): as above
T5 sequence (P31749 whole entry): as above
T2 sequence (P31749 5-108 limits assumed): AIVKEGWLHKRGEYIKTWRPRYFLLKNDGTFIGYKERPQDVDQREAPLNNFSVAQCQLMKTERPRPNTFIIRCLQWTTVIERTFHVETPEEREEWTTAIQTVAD

N=c1ccn2c(n1)OC1C(OP(=O)(O)O)C(CO)OC12 (stereo not shown) [PH-687, 2-(hydroxymethyl)-6-imino-2,3,3a,9a-tetrahydro-6H-furo[2′,3′:4,5]oxazolo[3,2-a]pyrimidin-3-yl dihydrogen phosphate]
activity against human lung cancer cells (cytotoxicity) (human lung cancer cells): most potent activity | Tm (melting temperature) (GST-tagged WT Akt): Dose-dependent increases in Tm | Tm (melting temperature) [1]: Dose-dependent increases in Tm | Tm (melting temperature) [2]: no significant increase in Tm | dissociation of Mcl-1/Akt complexes (Mcl-1/Akt complexes): dose-dependent dissociation of Mcl-1/Akt complexes | Akt activity (Akt): significantly reduced Akt activity | cell growth [3]: growth inhibition | PH/KD interaction (Akt PH/KD interaction): increased PH/KD interaction in a dose-dependent manner | interaction of Akt with PDK1 (Akt/PDK1): dose dependent decreased interaction | interaction of Akt with mTORC2 (Akt/mTORC2): dose dependent decreased interaction | cell growth (colony formation) (H1299 parental cells): growth inhibition in a dose-dependent manner | inhibitory effect on cell growth (colony formation) (H1299 Mcl-1−/− cells): reduced the inhibitory effect | inhibitory effect on cell growth (colony formation) [4]: reduced the inhibitory effect | EGF, IGF, and insulin-induced Akt phosphorylation at S473 (Akt phosphorylation): inhibited | EGF, IGF, and insulin-induced Akt phosphorylation at T308 (Akt phosphorylation): inhibited | Ki67 level in tumor tissues (IHC) (NSCLC (H1299) xenografts; [6]): decreased levels | apoptosis (active caspase-3) in tumor tissues (IHC) (NSCLC (H1299) xenografts; [6]): increased apoptosis | pAkt (S473) level in tumor tissues (IHC) (NSCLC (H1299) xenografts; [6]): decreased levels | pAkt (T308) level in tumor tissues (IHC) (NSCLC (H1299) xenografts; [6]): decreased levels | tumor growth (tumor volume) (NSCLC (H1299) xenografts; nude mice, 0, 30, 60, 90 mg/kg/day i.p., 4 weeks): suppressed tumor growth in a dose-dependent manner; also recorded: suppresses tumor growth | increase in alanine aminotransferase [5]: no significant increase | increase in aspartate aminotransferase [5]: no significant increase | increase in blood urea nitrogen [5]: no significant increase | reduction in PLT [5]: no significant | reduction in RBC [5]: no significant | reduction in WBC [5]: no significant | reduction in hemoglobin [5]: no significant | weight loss [5]: no significant weight loss
